Measured values from patent publication EP1117659B1, “SUBSTITUTED 3-CYANOQUINOLINES AS PROTEIN TYROSINE KINASES INHIBITORS” (Wyeth Holdings Corporation, priority 1998, dated 2000).
≈ marks a conversion by molar mass, not a printed value. Where “and” joins values, the source holds several entries; their conditions need not be identical. Equal entries are not always repeated.

Experiments:
[1] = biological target: Recombinant human MEK 1 (MAPKK) / recombinant human ERK2 (MAPK) (Mek-Erk) (Homo sapiens, UniProt P28482+Q02750); test: Mitogen Activated Protein Kinase (MAPK) assay, two component coupled Mek-Erk test; assay type: biochemical; details: read-out: Mek-Erk
Procedure: To evaluate inhibitors of the MAP (mitogen activated protein) kinase a two component coupled standard pharmacological test procedure, which measures phosphorylation of a serine/threonine residue in an appropriate sequence in the substrate in the presence and absence of a putative inhibitor, was used. Recombinant human MEK 1 (MAPKK) was first used to activate recombinant human ERK2 (MAPK) and the activated MAPK (ERK) was incubated with substrate (MBP peptide or MYC peptide) in the presence of ATP, Mg^+2 and radiolabeled ^33P ATP. The phosphorylated peptide was captured on a P 81 phosphocellulose filter (paper filter or embedded in microtiter plate) washed and counted by scintillation methods.
The peptide substrates used in the assay are MBP, peptide substrate ([sequence]), or synthetic Myc substrate, ([sequence]•5 TFA. The recombinant enzymes used were prepared as GST fusion proteins of human ERK 2 and human MEK 1. Inhibitor samples were prepared as 10X stocks in 10% DMSO and an appropriate aliquot was used to deliver either 10 ug/ml for a single point screening dose or 100, 10, 1, and 0.1 uM final concentration for a dose response curve. Final DMSO concentrations were less than or equal to 1%.
The reaction was run as follows in 50 mM Tris kinase buffer, pH 7.4 in a reaction volume of 50 ul. The appropriate volume of kinase buffer and inhibitor sample was added to the tube. Appropriate dilution of enzyme was delivered to give 2-5 ug recombinant MAPK (Erk ) per tube. The inhibitor was incubated with MAPK (Erk) for 30 min at 0° C. Recombinant Mek (MAPKK) ( 0.5-2.5 ug) or fully activated Mek (0.05-0.1 units) was added to activate the Erk and incubated for 30 min at 30° C. Then substrate and gamma ^33P ATP was were added to give a final concentration of 0.5- 1 mM MBPP or 250-500 uM Myc; 0.2-0.5 uCi gamma P 33 ATP/tube; 50 µM ATP final concentration. Samples were incubated at 30°C for 30 minutes and the reaction was stopped by adding 25 µl of ice cold 10 %TCA .After samples were chilled on ice for 30 min, 20 µl of sample was transferred onto P 81 phosphocellulose filter paper or appropriate MTP with embedded P 81 filter. Filter papers or MTP were washed 2 times with a large volume of 1% acetic acid, then 2 times with water. The filters or MTP were briefly air dried before addition of scintillant and samples were counted in the appropriate scintillation counter set up for reading ^33P isotope.
The raw data was captured as cpm. Sample replicates were averaged and corrected for background count. Mean cpm data was tabulated by group and % inhibition by a test compound was calculated as (corrected cpm control- corrected. cpm sample/control) X 100 = % inhibition.

A431 = test: Inhibition of Cancer Cell Growth as Measured by Cell Number (Sulforhodamine B); assay type: cell-based, Human; details: 48 hours exposure; for IC50: Homo sapiens, A-431, 48 h
Procedure: (§1) Human tumor cell lines were plated in 96-well plates (250 µl/well, 1-6 x 10^4 cells/ml) in RPMI 1640 medium, containing 5% FBS (Fetal Bovine Serum). […] After 48 hours exposure to test compounds, cells were fixed with trichloroacetic acid, and stained with Sulforhodamine B. After washing with trichloroacetic acid, bound dye was solubilized in 10 mM Tris base and optical density was determined using plate reader. Under conditions of the assay the optical density is proportional to the number of cells in the well. […] The test procedure is described in details by Philip Skehan et. al, J.Natl. Canc. Inst., 82, 1107-1112 (1990). […] Information about some of the cell lines used in these test procedures is available from the American Type Tissue Collection: Cell Lines and Hybridomas, 1994 Reference Guide, 8th Edition.

MDA-MB-435 = test: as above; assay type: cell-based, Human; details: 48 hours exposure; for IC50: Homo sapiens, MDA-MB-435, 48 h
Procedure: as §1

SK-BR3 = test: as above; assay type: cell-based, Human; details: 48 hours exposure; for IC50: Homo sapiens, SK-BR-3, 48 h
Procedure: as §1

SW620 = test: as above; assay type: cell-based, Human; details: 48 hours exposure; for IC50: Homo sapiens, SW-620, 48 h
Procedure: as §1

3T3/c-erbb2 = test: as above; assay type: cell-based; details: 48 hours exposure
Procedure: as §1

3T3 = test: as above; assay type: cell-based; details: 48 hours exposure
Procedure: as §1

[2] = biological target: Epithelial Cell Kinase (ECK) (Homo sapiens, UniProt P29317); test: Inhibition of Epithelial Cell Kinase (ECK), immobilized biotinylated peptide, HRP anti-phosphotyrosine readout; assay type: biochemical; details: IC50, substrate phosphorylation
Procedure: In this standard pharmacological test procedure, a biotinylated peptide substrate is first immobilized on neutravidin-coated microtiter plates. The test drug, the Epithelial Cell Kinase (ECK), Mg^++, sodium vanadate (a protein tyrosine phosphatase inhibitor), and an appropriate buffer to maintain pH (7.2) are then added to the immobilized substrate-containing microtiter wells. ATP is then added to initiate phosphorylation. After incubation, the assay plates are washed with a suitable buffer leaving behind phosphorylated peptide which is exposed to horse radish peroxidase (HRP)-conjugated anti-phosphotyrosine monoclonal antibody. The antibody-treated plates are washed again and the HRP activity in individual wells is quantified as a reflection of degree of substrate phosphorylation. […] Multiple entries for a given compound indication it was tested multiple times.

[3] = biological target: T1, Kinase insert Domain containing Receptor (KDR: the catalytic domain of the VEGF receptor) (Homo sapiens, UniProt P35968); test: Inhibition of Kinase insert Domain containing Receptor (KDR), radioactive phosphorylation of Glu:Tyr copolymer; assay type: biochemical; details: IC50, substrate phosphorylation
T1 construct: KDR: the catalytic domain of the VEGF receptor
Procedure: In this standard pharmacological test procedure, KDR protein is mixed, in the presence or absence of a inhibitor compound, with a substrate peptide to be phosphorylated (a copolymer of glutamic acid and tyrosine, E:Y :: 4:1) and other cofactors such as Mg^++ and sodium vanadate (a protein tyrosine phosphatase inhibitor) in an appropriate buffer to maintain pH (7.2). ATP and a radioactive tracer (either P^32- or P^33- labeled ATP) is then add to initiate phosphorylation. After incubation, the radioactive phosphate associated with the acid-insoluble fraction of the assay mixture is then quantified as reflection of substrate phosphorylation. […] Multiple entries for a given compound indication it was tested multiple times.

A2780 = test: Inhibition of Cancer Cell Growth as Measured by Cell Number (Sulforhodamine B); assay type: cell-based; details: Homo sapiens, 48 hours exposure
Procedure: as §1

DDP = test: as above; assay type: cell-based; details: Homo sapiens; 48 hours exposure
Procedure: as §1

T1 sequence (P35968 834-1162 limits assumed): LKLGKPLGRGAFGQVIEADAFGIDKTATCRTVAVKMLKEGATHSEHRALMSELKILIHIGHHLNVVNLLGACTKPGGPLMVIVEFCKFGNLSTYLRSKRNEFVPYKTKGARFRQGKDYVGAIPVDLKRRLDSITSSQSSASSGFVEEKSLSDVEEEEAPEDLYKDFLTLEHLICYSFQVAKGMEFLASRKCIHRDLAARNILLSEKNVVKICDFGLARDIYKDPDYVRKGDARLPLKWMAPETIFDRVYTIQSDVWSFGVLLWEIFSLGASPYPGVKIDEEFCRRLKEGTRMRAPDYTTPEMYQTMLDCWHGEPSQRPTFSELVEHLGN
Epithelial Cell Kinase (ECK), sequence (P29317 24-976, species assumed): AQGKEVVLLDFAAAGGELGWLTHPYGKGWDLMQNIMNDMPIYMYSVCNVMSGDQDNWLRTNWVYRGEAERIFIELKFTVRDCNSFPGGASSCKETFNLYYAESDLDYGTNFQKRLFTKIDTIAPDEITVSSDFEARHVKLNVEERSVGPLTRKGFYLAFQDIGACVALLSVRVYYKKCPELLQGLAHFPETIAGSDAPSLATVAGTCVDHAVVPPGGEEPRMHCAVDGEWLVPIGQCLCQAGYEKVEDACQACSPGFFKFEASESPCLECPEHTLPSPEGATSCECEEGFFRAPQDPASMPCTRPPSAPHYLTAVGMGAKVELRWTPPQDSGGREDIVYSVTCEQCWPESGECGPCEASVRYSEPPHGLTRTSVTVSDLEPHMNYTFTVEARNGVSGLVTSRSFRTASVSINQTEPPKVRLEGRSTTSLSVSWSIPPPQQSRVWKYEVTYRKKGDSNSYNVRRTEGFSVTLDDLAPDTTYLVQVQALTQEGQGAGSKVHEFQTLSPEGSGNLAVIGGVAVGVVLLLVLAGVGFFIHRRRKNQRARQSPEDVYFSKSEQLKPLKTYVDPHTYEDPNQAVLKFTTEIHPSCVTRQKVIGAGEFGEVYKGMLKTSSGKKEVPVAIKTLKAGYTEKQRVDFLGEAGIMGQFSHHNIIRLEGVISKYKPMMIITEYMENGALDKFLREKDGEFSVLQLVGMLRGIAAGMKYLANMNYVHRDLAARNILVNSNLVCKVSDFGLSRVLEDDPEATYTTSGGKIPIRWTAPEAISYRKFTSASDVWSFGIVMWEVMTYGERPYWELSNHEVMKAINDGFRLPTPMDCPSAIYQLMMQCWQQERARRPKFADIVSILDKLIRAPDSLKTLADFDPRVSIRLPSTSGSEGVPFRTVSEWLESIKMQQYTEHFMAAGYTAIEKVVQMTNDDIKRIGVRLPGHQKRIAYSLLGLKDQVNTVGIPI

6,7-Diethoxy-4-(1-oxo-indan-5-ylamino)-quinoline-3-carbonitrile [Example 110]
IC50 [1]: > 100 µM and 50 µM | IC50 µg/mL A431 (A431): 0.0244 µg/mL | IC50 µg/mL MDA-MB-435 (MDA-MB-435): 0.0280 µg/mL | IC50 µg/mL SK-BR3 (SK-BR3): 0.0281 µg/mL | IC50 µg/mL SW620 (SW620): 0.0181 µg/mL | IC50 µg/mL 3T3/c-erbb2 (3T3/c-erbb2): 0.0311 µg/mL | IC50 µg/mL 3T3 (3T3): 0.0923 µg/mL

CCOc1cc2ncc(C#N)c(Nc3ccc4c(C)cc(=O)oc4c3)c2cc1OCC [Example 100, 6,7-Diethoxy-4-(4-methyl-2-oxo-2H-chromen-7-ylamino)-quinoline-3-carbonitrile]
IC50 [2]: > 48.2 µM | IC50 [3]: > 72.3 µM | IC50 [1]: 3.5 µM | IC50 (A431): 0.369 µg/mL (≈ 0.888 µM) | IC50 (MDA-MB-435): 0.067 µg/mL (≈ 0.161 µM) | IC50 (SK-BR3): 0.429 µg/mL (≈ 1.03 µM) | IC50 (SW620): 0.325 µg/mL (≈ 0.782 µM) | IC50 (A2780): 0.27 µg/mL (≈ 0.65 µM) | IC50 (DDP): 0.249 µg/mL (≈ 0.599 µM)

COc1cc2ncc(C#N)c(Nc3ccc4cn[nH]c4c3)c2cc1OC [Example 102, 6,7-Dimethoxy-4-(1H-indazol-6-ylamino)-quinoline-3-carbonitrile]
IC50 [2]: > 56.4 µM | IC50 [3]: 14.1 µM | IC50 (A431): 1.31 µg/mL (≈ 3.79 µM) | IC50 (MDA-MB-435): 0.49 µg/mL (≈ 1.42 µM) | IC50 (SK-BR3): 0.78 µg/mL (≈ 2.26 µM) | IC50 (SW620): 2.18 µg/mL (≈ 6.31 µM) | IC50 (A2780): 1.49 µg/mL (≈ 4.32 µM) | IC50 (DDP): 3.05 µg/mL (≈ 8.84 µM)

CCOc1cc2ncc(C#N)c(Nc3ccc4[nH]nnc4c3)c2cc1OCC [Example 103, 4-(1H-Benzotriazol-5-ylamino)-6,7-diethoxy-quinoline-3-carbonitrile]
IC50 [2]: > 53.4 µM | IC50 (A431): 1.61 µg/mL (≈ 4.3 µM) | IC50 (MDA-MB-435): 0.309 µg/mL (≈ 0.825 µM) | IC50 (SK-BR3): 0.767 µg/mL (≈ 2.05 µM) | IC50 (SW620): 2.64 µg/mL (≈ 7.04 µM) | IC50 (A2780): 2.39 µg/mL (≈ 6.39 µM) | IC50 (DDP): 2.69 µg/mL (≈ 7.18 µM)

CCOc1cc2ncc(C#N)c(Nc3ccc4c(c3)C(=O)NC4=O)c2cc1OCC [Example 104, 4-(1,3-Dioxo-2,3-dihydro-1H-isoindol-5-ylamino)-6,7-diethoxy-quinoline-3-carbonitrile]
IC50 [2]: > 49.7 µM | IC50 [3]: > 74.6 µM | IC50 [1]: 35 µM | IC50 (A431): 0.049 µg/mL (≈ 0.122 µM) | IC50 (MDA-MB-435): 0.021 µg/mL (≈ 0.0522 µM) | IC50 (SK-BR3): 0.034 µg/mL (≈ 0.0845 µM) | IC50 (SW620): 0.207 µg/mL (≈ 0.514 µM) | IC50 (A2780): 0.044 µg/mL (≈ 0.109 µM) | IC50 (DDP): 0.107 µg/mL (≈ 0.266 µM)

CCOc1cc2ncc(C#N)c(Nc3ccc4c(c3)CCC4)c2cc1OCC [Example 108, 6,7-Diethoxy-4-(indan-5-ylamino)-quinoline-3-carbonitrile]
IC50 [2]: > 2.68 µM | IC50 [3]: > 80.3 µM | IC50 (A431): 0.342 µg/mL (≈ 0.916 µM) | IC50 (MDA-MB-435): 0.352 µg/mL (≈ 0.943 µM) | IC50 (SK-BR3): 0.294 µg/mL (≈ 0.787 µM) | IC50 (SW620): < 0.0005 µg/mL | IC50 (3T3/c-erbb2): 0.0198 µg/mL (≈ 0.053 µM) | IC50 (3T3; Mus musculus, NIH3T3): 0.525 µg/mL (≈ 1.41 µM)
